In PubChem BioAssay AID1963842 (Molecular Pharmacology Branch, DTP, NCI, 2024) one finds IC50 and viability, T/C data, which are given here for five compounds.

The assay relates to 677734-321-R-J1-PDC complex spheroid viability. Put plainly: Anticancer human tumor 677734-321-R-J1-PDC patient-derived soft tissue sarcoma cell line growth inhibition [POLQ]. Particulars: for viability, T/C: stronger effect = lower value. Here is the method:
Multicellular complex tumor spheroid response to Polymerase (POL) inhibitors (novobiocin, ART-558, RP6685) in combination with a variety of drugs and investigational agents in selected tumor cell lines
The POL inhibitors (novobiocin, ART-558, and RP6685) were evaluated both individually and in combination with standard of care and investigational anticancer small molecules within a complex spheroid model of solid tumors. . Complex spheroids include a stromal component modeled by human endothelial cells (HUVEC) and fibroblasts modeled by human mesenchymal stem cells (MSCs). The concentration ranges selected for each drug and investigational agent were based upon clinically achievable concentrations if the clinical Cmax of the agent was known.
Compounds. The drugs and investigational agents: novobiocin (NSC847541), ART-558 (NSC835418), RP-6685 (NSC848927), peposertib (NSC802822), ceralasertib (NSC780249), elimusertib (NSC800525), camonsertib (NSC841442), AZD-1390 (NSC803789), olaparib (NSC753686), talazoparib (NSC767125), rucaparib (NSC756644), sotorasib (NSC818433), MRTX-1133 (NSC836407), SN-38 (NSC673596), topotecan (NSC609699), epotoside (NSC141540), doxorubicin (NSC123127), gemcitabine (NSC613327), 5-fluorouracil (NSC19893), paclitaxel (NSC125973), vemurafenib (NSC761431), MSA-2 (NSC828583), SN-011 (NSC837082), adavosertib (NSC754352), prexasertib (NSC758257), carboplatin (NSC241240) and oxaliplatin (NSC266046), were obtained from the National Cancer Institute (NCI) Developmental Therapeutics Program Chemical Repository (21). The FDA-approved anticancer drug set is available from the Developmental Therapeutics Program at https://dtp.cancer.gov/organization/dscb/obtaining/. […] The stock solutions were prepared in dimethyl sulfoxide (DMSO, Sigma-Aldrich, St. Louis, MO, cat. D2650), except for the platinum compounds which were prepared in saline (Quality Biological, Gaithersburg, MD, cat. 114-055-101), at 800-fold the tested concentration and stored at -70 degrees C prior to their use. All drugs and investigational agents were tested over a range starting from a high concentration at or near the clinical Cmax and decreasing in half-log increments. If the clinical Cmax for an agent had not been determined, the highest concentration tested was 10 microM, except for SN-38, which was tested at a high concentration of 1 microM.
Cell Culture. All cells were maintained in an incubator at 37 degrees C and 5% CO2 with 95% humidity. The PDC lines were cultured according to standard operating procedures established by the NCI PDMR (https://pdmr.cancer.gov). Table 3 of the manuscript, lists the cell lines along with the number of the three cell types plated to form the mct-spheroids and media for tumor cell growth. After thawing, all PDC lines, except 997537-175-T-J1-PDC and 415267-285-R-J2-PDC, were cultured in Matrigel-coated flasks prepared with a working solution of 1X Ham's F-12 nutrient mix, without supplementation (Thermo Fisher Scientific, cat. 11765054), 100 U/mL penicillin-streptomycin (Thermo Fisher Scientific, cat. 15140122), and 2.5% Matrigel (Corning Inc., Corning, NY, cat. 354248) for the first three passages. The two PDC lines 997537-175-T-J1-PDC and 415267-285-R-J2-PDC were cultured on uncoated flasks. The 857933-349-R-J2-PDC line was cultured in 6C/Colon 1B media containing advanced DMEM/F-12 (Thermo Fisher Scientific, cat. 12634028), 10 mM HEPES (Thermo Fisher Scientific, cat. 15630080), 1X GlutaMAX supplement (Thermo Fisher Scientific, cat. 35050061), 0.1 mg/mL primocin (InvivoGen, San Diego, CA, cat. ant-pm-2), 10% defined fetal bovine serum, heat inactivated (HyClone Laboratories Inc., Logan, UT, cat. SH30070.03HI), 50% L-WRN conditioned media (ATCC, cat. CRL-3276), 1.25 mM N-Acetyl-L-cysteine (Sigma-Aldrich, cat. A9165), 10 mM nicotinamide (Sigma-Aldrich, cat. N0636), 1X B-27 supplement (Thermo Fisher Scientific, cat. 17504044), 1X N-2 supplement (Thermo Fisher Scientific, cat. […]

Several values for one entry are separate records, joined by “and”; a condition that tells them apart may be missing. Identical values can stand only once. A value given as a limit tells only on which side of the number the result lay.
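Also: spheroids exposed to compounds for one week.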

By IC50 is commonly meant the concentration that inhibits the measured activity by half. What is called viability, T/C is the result in the treated group divided by that in the control group, in per cent. Turning to `COc1cc(C2c3cc4c(cc3C(OC3OC5COC(C)OC5C(O)C3O)C3COC(=O)C23)OCO4)cc(OC)c1O` (centres undefined) + COC1C(OC(N)=O)C(O)C(Oc2ccc3c(O)c(NC(=O)c4ccc(O)c(CC=C(C)C)c4)c(=O)oc3c2C)OC1(C)C, the IC50 runs as follows: (curve of first compound, second compound 0.0316 µM) 711 nM; (curve of first compound, second compound 0.1 µM) 732 nM; (curve of first compound, second compound 0.316 µM) 938 nM; (curve of first compound, second compound 1 µM) 667 nM; (curve of first compound, second compound 3.16 µM) 843 nM; (curve of first compound, second compound 10 µM) 704 nM. Besides, the viability, T/C runs as follows: (second compound 0.0316 µM, first compound 0.0316 µM) 107%; (second compound 0.0316 µM, first compound 0.1 µM) 91.5%; (second compound 0.0316 µM, first compound 0.316 µM) 59.5%; (second compound 0.0316 µM, first compound 1 µM) 47.8%; (second compound 0.0316 µM, first compound 3.16 µM) 23.8%; (second compound 0.0316 µM, first compound 10 µM) 11.1%. Further, the viability, T/C was 105% (second compound 0.1 µM, first compound 0.0316 µM); 94.7% (second compound 0.1 µM, first compound 0.1 µM); 55% (second compound 0.1 µM, first compound 0.316 µM); 47.2% (second compound 0.1 µM, first compound 1 µM); 30.2% (second compound 0.1 µM, first compound 3.16 µM); 10.7% (second compound 0.1 µM, first compound 10 µM). The viability, T/C runs as follows: (second compound 0.316 µM, first compound 0.0316 µM) 100%; (second compound 0.316 µM, first compound 0.1 µM) 93.8%; (second compound 0.316 µM, first compound 0.316 µM) 70.8%; (second compound 0.316 µM, first compound 1 µM) 51.3%; (second compound 0.316 µM, first compound 3.16 µM) 23.9%; (second compound 0.316 µM, first compound 10 µM) 12%. In addition, the viability, T/C was 111% (second compound 1 µM, first compound 0.0316 µM); 87.2% (second compound 1 µM, first compound 0.1 µM); 60.4% (second compound 1 µM, first compound 0.316 µM); 45.3% (second compound 1 µM, first compound 1 µM); 24.3% (second compound 1 µM, first compound 3.16 µM); 9.55% (second compound 1 µM, first compound 10 µM). Further, the viability, T/C by setting is: (second compound 3.16 µM, first compound 0.0316 µM) 111%; (second compound 3.16 µM, first compound 0.1 µM) 93.6%; (second compound 3.16 µM, first compound 0.316 µM) 62.6%; (second compound 3.16 µM, first compound 1 µM) 54.9%; (second compound 3.16 µM, first compound 3.16 µM) 20.4%; (second compound 3.16 µM, first compound 10 µM) 9%. For the same compound, the viability, T/C was 110% (second compound 10 µM, first compound 0.0316 µM); 98.2% (second compound 10 µM, first compound 0.1 µM); 58.2% (second compound 10 µM, first compound 0.316 µM); 47.6% (second compound 10 µM, first compound 1 µM); 23.7% (second compound 10 µM, first compound 3.16 µM); 11% (second compound 10 µM, first compound 10 µM).
As for `COc1cc(C2c3cc4c(cc3C(OC3OC5COC(C)OC5C(O)C3O)C3COC(=O)C23)OCO4)cc(OC)c1O` (centres undefined), the viability, T/C reads like this: (compound 0.0316 µM) 104% and 100% and 109%; (compound 0.1 µM) 89.1% and 82.7% and 89.3%; (compound 0.316 µM) 62.1% and 53.5% and 58%; (compound 1 µM) 57.5% and 29.2% and 48.4%; (compound 3.16 µM) 31.5% and 19.5% and 25.9%; (compound 10 µM) 8.04% and 9.9% and 10.2%. Further, under “curve of compound”, the IC50 is 970 nM and 385 nM and 706 nM.
In the case of `CCc1cc2c(N3CCc4c(cc(Cn5ccnc5)cc4-c4cn(C)nc4C(F)(F)F)C3=O)cc(C)nc2c(OC)n1`, the viability, T/C is 108% and 84.9% and 95.3% (compound 0.0316 µM); 104% and 93.7% and 115% (compound 0.1 µM); 100% and 83.8% and 86.7% (compound 0.316 µM); 85.4% and 79.7% and 96.4% (compound 1 µM); 76.5% and 55.1% and 70.1% (compound 3.16 µM); 56.7% and 37.7% and 41.4% (compound 10 µM). Further, the IC50 (curve of compound) was > 10000 nM and 4460 nM and 7110 nM.
Consider `O=C(c1cc(Cc2n[nH]c(=O)c3ccccc23)ccc1F)N1CCN(C(=O)C2CC2)CC1`, for which the viability, T/C (compound 0.0316 µM) is 102% and 15.6% and 95.7%; the viability, T/C (compound 0.1 µM) is 100% and 20.2% and 94.9%; the viability, T/C (compound 0.316 µM) was 104% and 16.8% and 106%; the viability, T/C (compound 1 µM) was 105% and 20.7% and 100%; the viability, T/C (compound 3.16 µM) was 97.5% and 14.8% and 101%; the viability, T/C (compound 10 µM) was 77.8% and 12.2% and 58.9%.
Regarding `CC1COCCN1c1cc(C2(O)CC3CCC(C2)O3)c2cnn(-c3ccn[nH]3)c2n1` (centres undefined), the viability, T/C runs as follows: (compound 0.0316 µM) 81.7% and 83.6% and 51%; (compound 0.1 µM) 51.1% and 44.5% and 17.5%; (compound 0.316 µM) 25.6% and 22.2% and 9.65%; (compound 1 µM) 20.1% and 15.7% and 9.53%; (compound 3.16 µM) 17.1% and 14.3% and 7.61%; (compound 10 µM) 17.9% and 14.2% and 4.79%. Besides, the IC50 (curve of compound) is 105 nM and 85.1 nM and 32.4 nM.
